Values quoted from earlier work as cited in patent US20210145763A1, “LOW THC HEMP EXTRACT AND METHOD OF TREATMENT OR PREVENTION OF AN EYE DISEASE” (EYE CO PTY LTD, priority 2018, published 2021).

Columns and labels:
[1] = in vivo
glucocorticoid receptor = target: T1, glucocorticoid receptor (Homo sapiens, UniProt P04150); details: relative potency, hydrocortisone = 1
T1 sequence (P04150 1-777): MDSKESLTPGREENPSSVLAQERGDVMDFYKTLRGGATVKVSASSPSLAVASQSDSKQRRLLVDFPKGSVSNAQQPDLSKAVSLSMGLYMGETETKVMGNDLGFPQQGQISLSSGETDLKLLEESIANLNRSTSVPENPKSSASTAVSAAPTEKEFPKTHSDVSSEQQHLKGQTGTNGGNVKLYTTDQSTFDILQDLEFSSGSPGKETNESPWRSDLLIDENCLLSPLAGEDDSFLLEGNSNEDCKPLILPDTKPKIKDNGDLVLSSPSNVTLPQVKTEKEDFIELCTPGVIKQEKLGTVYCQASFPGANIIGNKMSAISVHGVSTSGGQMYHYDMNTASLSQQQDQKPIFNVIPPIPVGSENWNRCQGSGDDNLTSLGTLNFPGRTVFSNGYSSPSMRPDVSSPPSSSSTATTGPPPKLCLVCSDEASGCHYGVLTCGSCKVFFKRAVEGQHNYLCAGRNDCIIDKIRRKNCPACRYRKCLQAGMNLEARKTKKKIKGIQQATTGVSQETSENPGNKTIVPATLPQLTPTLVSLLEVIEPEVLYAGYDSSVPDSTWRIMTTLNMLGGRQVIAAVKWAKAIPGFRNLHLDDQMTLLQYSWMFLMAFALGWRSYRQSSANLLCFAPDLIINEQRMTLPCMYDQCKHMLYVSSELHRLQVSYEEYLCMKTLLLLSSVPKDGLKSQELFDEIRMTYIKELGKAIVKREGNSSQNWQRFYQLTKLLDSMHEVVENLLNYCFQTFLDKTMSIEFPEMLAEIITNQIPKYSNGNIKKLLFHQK

[2] = target: T2, mineralocorticoid receptor (Homo sapiens, UniProt P08235); details: relative potency, hydrocortisone = 1
T2 sequence (P08235 1-984): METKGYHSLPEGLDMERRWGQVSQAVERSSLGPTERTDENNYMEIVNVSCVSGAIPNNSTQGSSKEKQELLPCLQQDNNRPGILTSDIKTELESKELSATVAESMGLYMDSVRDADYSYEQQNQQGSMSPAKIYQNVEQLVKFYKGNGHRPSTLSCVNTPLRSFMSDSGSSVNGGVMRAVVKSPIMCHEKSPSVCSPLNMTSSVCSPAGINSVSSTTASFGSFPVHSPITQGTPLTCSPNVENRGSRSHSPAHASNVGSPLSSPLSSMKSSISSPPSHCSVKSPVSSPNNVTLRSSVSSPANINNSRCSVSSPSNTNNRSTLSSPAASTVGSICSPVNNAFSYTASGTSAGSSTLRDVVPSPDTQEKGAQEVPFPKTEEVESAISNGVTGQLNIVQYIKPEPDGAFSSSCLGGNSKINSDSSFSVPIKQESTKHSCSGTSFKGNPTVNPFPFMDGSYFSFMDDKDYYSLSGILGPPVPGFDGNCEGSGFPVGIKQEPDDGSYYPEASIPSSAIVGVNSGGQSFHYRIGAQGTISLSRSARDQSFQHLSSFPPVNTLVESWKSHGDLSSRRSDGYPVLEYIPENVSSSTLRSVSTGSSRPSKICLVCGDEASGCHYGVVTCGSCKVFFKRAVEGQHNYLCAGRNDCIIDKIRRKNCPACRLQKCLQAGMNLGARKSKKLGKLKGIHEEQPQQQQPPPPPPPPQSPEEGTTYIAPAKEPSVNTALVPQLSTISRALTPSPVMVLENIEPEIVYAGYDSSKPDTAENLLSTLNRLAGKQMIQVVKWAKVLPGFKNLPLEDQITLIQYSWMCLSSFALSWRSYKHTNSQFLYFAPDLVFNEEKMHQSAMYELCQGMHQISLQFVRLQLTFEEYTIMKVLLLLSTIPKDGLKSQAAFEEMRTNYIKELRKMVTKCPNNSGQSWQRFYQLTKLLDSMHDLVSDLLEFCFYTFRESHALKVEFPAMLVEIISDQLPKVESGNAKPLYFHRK

Row | Compound | Duration of action (t1/2 in hours) [1] [h] | GR potency (glucocorticoid receptor) | MR potency [2]
1 | C[C@]12C=CC(=O)C=C1CC[C@H]1[C@@H]3C[C@@H](O)[C@](O)(C(=O)CO)[C@@]3(C)C[C@H](O)[C@@]12F [Triamcinolone] | 12 to 36 | 5 | 0
2 | C[C@]12CCC(=O)C=C1CC[C@@H]1[C@@H]2C(=O)C[C@@]2(C)[C@H]1CC[C@]2(O)C(=O)CO [Cortisone] | – | 0.8 | 0.8
3 | C[C@]12CCC(=O)C=C1CC[C@@H]1[C@@H]2[C@@H](O)C[C@@]2(C)[C@H]1CC[C@]2(O)C(=O)CO [Hydrocortisone (cortisol), Hydrocortisone] | – | 1 | 1
4 | C[C@]12CCC(=O)C=C1CC[C@@H]1[C@@H]2[C@@H](O)C[C@]2(C=O)[C@@H](C(=O)CO)CC[C@@H]12 [Aldosterone] | – | 0.3 | 200-1000
5 | C[C@H]1C[C@@H]2[C@H]([C@@H](O)C[C@@]3(C)[C@H]2CC[C@]3(O)C(=O)CO)[C@@]2(C)C=CC(=O)C=C12 [Methylprednisolone] | 18 to 40 | – | –

Other lines, results leading:

Row | Duration of action (t1/2 in hours) [1] [h] | GR potency (glucocorticoid receptor) | MR potency [2] | Compound
6 | 16 to 36 | 4 | 0.8 | C[C@]12C=CC(=O)C=C1CC[C@@H]1[C@@H]2[C@@H](O)C[C@@]2(C)[C@H]1CC[C@]2(O)C(=O)CO [Prednisolone]
7 | – | 0 | 20 | CC(=O)OCC(=O)[C@H]1CC[C@H]2[C@@H]3CCC4=CC(=O)CC[C@]4(C)[C@H]3CC[C@]12C [Deoxycorticosterone acetate (DOCA), Deoxycorticosterone acetate]
8 | – | – | 200 | CC(=O)OCC(=O)[C@@]1(O)CC[C@H]2[C@@H]3CCC4=CC(=O)CC[C@]4(C)[C@@]3(F)[C@@H](O)C[C@@]21C [Fludrocortisone acetate]
9 | 16 to 36 | – | 0.8 | C[C@]12C=CC(=O)C=C1CC[C@@H]1[C@@H]2C(=O)C[C@@]2(C)[C@H]1CC[C@]2(O)C(=O)CO [Prednisone]
